Where two headings read alike, the source gives them in different places.
Columns and labels:
[1] = Steady-state PK in KPC mice fed metarrestin-infused chow; format: in vivo; conditions: for Kp / AUC0-24hr Ratio (Tissue/Plasma): 10 mg/kg/day; for Kp / Cmax / Tmax / AUC0-24hr Ratio (Tissue/Plasma): day 10, chow; for Kp: read-out: AUC0-24hr Ratio (Tissue/Plasma); for concentration at 0 h / concentration at 3 h / concentration at 6 h / concentration at 9 h / concentration at 12 h / concentration at 15 h / concentration at 24 h: day 10, 10 mg/kg/day (70 ppm) chow; for Cmax / Tmax: po
[2] = as above; format: in vivo; conditions: 25 mg/kg PO chow MD
Method: Metarrestin [ML-246; Trans-4-(7-benzyl-4-imino-5,6-diphenyl-4,7-dihydro-3H-pyrrolo[2,3-d]pyrimidin-3-yl) cyclohexanol] was manufactured in-house using the previously described 4-step synthesis sequence. Purity (> 98%) was determined by LC-MS/MS and 1H-NMR analysis as previously reported. To enhance bioavailability, the drug was micronized to particles of uniform small size with greater surface area using a technique proprietary to Crititech Inc. (Lawrence, Kansas). In brief, the drug substance was dissolved in organic solvent dichloromethane and precipitated using compressed super critical carbon dioxide as the anti-solvent. The produced material had 90% particles with a diameter less than 1.131 µm with a mean diameter of 0.829 µm (Suppl. Figure 1). […]
An ultra-performance liquid chromatography–tandem mass spectrometry (UPLC–MS/MS) method was developed to determine metarrestin concentrations in plasma and tissue samples. […] Data were analyzed using MassLynx V4.1.
The pharmacokinetic parameters were calculated using the non-compartmental approach (Models 200 and 201) of the pharmacokinetic software Phoenix WinNonlin, version 6.4 (Certara, St. Louis, MO). The area under the plasma concentration vs time curve (AUC) was calculated using the linear trapezoidal method. […]

[3] = KPC, mouse, plasma, oral, read-out: Plasma concentration
[4] = KPC, mouse, liver, target dose 10 mg/kg/day
[5] = KPC, mouse, plasma, target dose 10 mg/kg/day
[6] = KPC, mouse, spleen, target dose 10 mg/kg/day
[7] = KPC, mouse, tumor, target dose 10 mg/kg/day
[8] = KPC, mouse, tumor, oral, read-out: Tumor concentration

Question: With `N=c1c2c(-c3ccccc3)c(-c3ccccc3)n(Cc3ccccc3)c2ncn1[C@H]1CC[C@H](O)CC1` [metarrestin, Trans-4-(7-benzyl-4-imino-5,6-diphenyl-4,7-dihydro-3H-pyrrolo[2,3-d]pyrimidin-3-yl) cyclohexanol] as the compound, how does the “intratumor AUC0–24h” value ([1]; 10 mg/kg PO chow) read?
Answer: 80,600 h ng/mL

Question: What about the “intratumor AUC0–24h” value ([1]; 10 mg/kg PO steady-state chow) of the same compound?
Answer: 96,100 h ng/mL

Question: And the “intratumor AUC levels” value ([1]; 10 mg/kg dosing with solid or liquid formulations)?
Answer: > 80,000 ng h/mL

Question: And the Kp ([1]; KPC, mouse, liver, oral, liver/plasma, target dose 10 mg/kg/day)?
Answer: > 20

Question: And the AUC(0-t) ([1]; KPC, mouse, oral, plasma, day 10, chow 70 ppm, target dose 10 mg/kg/day, read-out: AUC0-24hr)?
Answer: 4160 ng·h/mL

Question: And the Kp ([1]; KPC, mouse, pancreatic tumor, oral, tumor/plasma, target dose 10 mg/kg/day)?
Answer: > 20

Question: And the concentration at 0 h [1, 3]?
Answer: 0.46 µM

Question: And the concentration at 3 h [1, 3]?
Answer: 0.33 µM

Question: And the concentration at 6 h [1, 3]?
Answer: 0.3 µM

Question: And the concentration at 9 h [1, 3]?
Answer: 0.5 µM

Question: What about the concentration at 12 h [1, 3] of the same compound?
Answer: 0.43 µM

Question: And the concentration at 15 h [1, 3]?
Answer: 0.36 µM

Question: What about the concentration at 24 h [1, 3] of the same compound?
Answer: 0.27 µM

Question: And the Cmax [1, 4]?
Answer: 7250 ng/mL

Question: What about the Tmax [1, 4] of the same compound?
Answer: 12 h

Question: And the Cmax [1, 5]?
Answer: 237 ng/mL

Question: What about the Tmax [1, 5] of the same compound?
Answer: 9 h

Question: What about the Cmax [1, 6] of the same compound?
Answer: 5840 ng/mL

Question: What about the Tmax [1, 6] of the same compound?
Answer: 15 h

Question: And the Cmax [1, 7]?
Answer: 5100 ng/mL

Question: And the Tmax [1, 7]?
Answer: 9 h

Question: What about the Kp ([1]; KPC, mouse, spleen, oral, spleen/plasma, target dose 10 mg/kg/day) of the same compound?
Answer: > 20

Question: What about the concentration at 0 h [1, 8] of the same compound?
Answer: 7.9 µM

Question: What about the concentration at 3 h [1, 8] of the same compound?
Answer: 10.3 µM

Question: And the concentration at 6 h [1, 8]?
Answer: 8 µM

Question: And the concentration at 9 h [1, 8]?
Answer: 10.8 µM

Question: What about the concentration at 12 h [1, 8] of the same compound?
Answer: 10.7 µM

Question: And the concentration at 15 h [1, 8]?
Answer: 7.2 µM

Question: What about the concentration at 24 h [1, 8] of the same compound?
Answer: 6.7 µM

Question: What about the “AUC0-24hr Ratio (Tissue/Plasma)” value ([1]; liver/plasma, target dose 10 mg/kg/day) of the same compound?
Answer: 37

Question: And the AUC0-24hr ([1]; liver, day 10, chow 70 ppm, target dose 10 mg/kg/day)?
Answer: 153000 ng●hr/mL

Question: What about the “AUC0-24hr Ratio (Tissue/Plasma)” value ([1]; spleen/plasma, target dose 10 mg/kg/day) of the same compound?
Answer: 26

Question: What about the AUC0-24hr ([1]; spleen, day 10, chow 70 ppm, target dose 10 mg/kg/day) of the same compound?
Answer: 109000 ng●hr/mL

Question: And the “AUC0-24hr Ratio (Tissue/Plasma)” value ([1]; tumor/plasma, target dose 10 mg/kg/day)?
Answer: 23

Question: What about the AUC0-24hr ([1]; tumor, day 10, chow 70 ppm, target dose 10 mg/kg/day) of the same compound?
Answer: 96100 ng●hr/mL

Question: What about the “intratumor AUC0–24h” value [2] of the same compound?
Answer: 396,000 h ng/mL

Reference: publication PMC6267684, “Pharmacokinetic evaluation of the PNC disassembler metarrestin in wild-type and Pdx1-Cre;LSL-Kras^G12D/+;Tp53^R172H/+ (KPC) mice, a genetically engineered model of pancreatic cancer” (Cancer Chemotherapy and Pharmacology, 2018)
